Reference: PubChem BioAssay AID488892 (Sanford-Burnham Center for Chemical Genomics, 2010)
Active and inactive are the calls of the source.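 Rule for the calls: active = mean IC50 below a set limit; inactive = the rest.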

Molecular target: Alkaline phosphatase, placental type (Homo sapiens) (UniProt P05187)
Test: PLAP enzyme inhibitors, dose response, selectivity assay for human IAP inhibitor project, biochemical, uHTS hits, luminescence (AID 488892)
Settings: purified PLAP, CDP-Star luminescence, 30 min

| IC50 | Structure (SMILES) |
| --- | --- |
| 18.4 µM | Oc1ccc(N=Nc2c(O)ccc3ccccc23)cc1 |
| 30.3 µM | CN(C)c1ccc2nc3c(=O)[nH]c(=O)nc-3n(CC(O)C(O)C(O)CO)c2c1 (stereo not drawn) |
| > 100 µM (inactive) | O=C1C2C3C=CC(C3)C2C(=O)N1c1n[nH]c(-c2cccnc2)n1 (stereo not drawn) |
| 29.9 µM | Nc1ccc(-c2c3ccc(=O)cc-3oc3cc(O)ccc23)cc1C(=O)O |
| 27.9 µM | CN(C)c1ccc(N=Nc2ccccc2Br)cc1 |
| > 100 µM (inactive) | C/C(=N/Nc1ccccc1[N+](=O)[O-])c1ccc([N+](=O)[O-])cc1 |
| 10.6 µM | C=CCN1C(=O)/C(=C\C=C2\N(C)c3ccccc3C2(C)C)SC1=S |
| 44.8 µM | CC(C)=CCc1c(O)ccc2c1OC(c1ccc(O)c(O)c1)CC2=O (stereo not drawn) |
| 11.5 µM | COc1ccc2nc3cc(Cl)ccc3c(Nc3cc(CN4CCCC4)c(O)c(CN4CCCC4)c3)c2n1 |
| 15.5 µM | COc1cc(/C=C(\C#N)C(=O)c2ccc(O)c(O)c2)cc(I)c1O |
| 27.9 µM | O=C(NN1C(=O)/C(=C/c2ccc(O)c([N+](=O)[O-])c2)SC1=S)c1ccccc1Cl |
| 5.59 µM | N#C/C(=C\c1ccc(O)c(O)c1)C(=O)c1ccc(O)c(O)c1 |
| 75.4 µM | O=C(/C=C/c1ccccc1O)c1ccco1 |
| 10.8 µM | CC[n+]1c(/C=C/c2c[nH]c3ccccc23)ccc2cc(C)ccc21 |
| 37.8 µM | CC1=NN(Cc2ccccc2)C(=O)/C1=C\c1ccc(N(C)C)cc1 |
| 2.71 µM | O=c1c2cc(O)c(O)cc2oc2cc(O)c(C3OC(CO)C(O)C(O)C3O)c(O)c12 (stereo not drawn) |
| 8.64 µM | O=C1Nc2ccccc2/C1=N\N=C\c1ccc(O)c(O)c1 |
| 28.2 µM | CCN1/C(=C\c2ccc3ccccc3[n+]2CC)Sc2cc(C)ccc21 |
| 4.1 µM | CNc1nnc(-c2cc3ccccc3oc2=O)s1 |
| 14.7 µM | COc1ccc(C=C2C(=O)c3ccccc3C2=O)cc1O |
| 49 µM | CCN(CC)c1ccc(N=Nc2nn(C)c(C)c2[N+](=O)[O-])cc1 |
| 35.1 µM | CCOc1cc(/C=C2/C(=O)ON=C2C)cc(Br)c1O |
| 30.3 µM | c1ccc(CSCCc2ccncc2)cc1 |
